Results reported in patent US6949353B2, “Capping enzyme of flavivirus and utilization of this protein in a process to test drugs with antiviral properties” (priority 2001, dated 2005).

Tests used:
[1] = target: T1, CEF (Capping Enzyme of Flavivirus) (Dengue virus type 2, UniProt P14340); test: UV-crosslinking of α-32P-GTP (or α-32P-ATP) to CEF, direct binding; design: species or system Dengue virus type 2 (New Guinea)
T1 construct: is a thirty-three kDa N-terminal domain of the RNA-dependent RNA polymerase; made in house; host or cells: E. coli (vector pQE30)
Protocol: In the drawings, as noted above, FIGS. 1A and 1B are a pair of photographs of gel electrophoresis. […] 2 μg of CEF was incubated with 50 μM (1 μCi) of either α-^32P-GTP (lane 1, 2, 5, 6) or α-^32P-ATP (lanes 3, 4) in 50 mM Tris pH 7.6, 5 mM DTT in the presence (lane 1, 3-6)) or absence (lane 2) of 5 mM Mg^2+. The sample was cross-linked using UV irradiation (254 nm), boiled for 5 min, and subjected to denaturing gel electrophoresis. Products were analyzed and quantified using photostimulable plates and a FujiImager. Bacteriophage T4 DNA ligase served as a positive control (lane 5). The F25A variant of CEF was purified under the same conditions as those of wild-type CEF. Upper panels show the comassie-blue stained gels, and lower panels the corresponding autoradiographic analysis. […] The mixture was boiled for 5 min, subjected to denaturing gel electrophoresis, and the gel analyzed and quantified as in panel A. Upper panels show the comassie-blue stained gels, and lower panels the corresponding autoradiographic analysis. […]
The binding affinity constant of GTP to CEF can be easily determined using a fixed concentration of CEF and increasing concentrations of radiolabeled GTP as described in FIG. 1A. […]

[2] = target: T1, CEF (Capping Enzyme of Flavivirus); test: Competition with radiolabeled GTP for CEF, CEF-GTP complex assayed by UV-crosslinking; assay type: binding, Dengue virus type 2 (New Guinea)
Protocol: The invention can also be useful in methods for determining the inhibitory power of a biologically active compound acting as a competitive inhibitor of GTP comprising: • a) incubating CEF with radiolabeled GTP, • b) adding selected different concentrations of the biologically active compound, • c) assaying resulting radiolabeled CEF-GTP complex produced from the incubation, • d) quantifying an amount of radiolabeled CEF-GTP complex produced from the assay, • e) comparing the amount to a binding affinity constant of GTP to CEF, and • f) determining the inhibitory power of the biologically active compound.
More particularly, the incubating step in the methods of the invention is conducted at about 52 μM of GTP. Selected different concentrations of GTP are about 0 μM, about 10 μM, about 20 μM, about 50 μM, about 100 μM, about 200 μM, about 300 μM, about 500 μM, and about 800 μM. Assaying in the methods of the invention comprises UV-crosslinking of α-^32P-GTP to CEF.
The CEF-GTP complex is then assayed using UV-crosslinking as described above. If acyclovir 5′triphosphate competes with radiolabeled GTP for the CEF active-site, acyclovir 5′triphosphate will replace GTP in the active-site.

[3] = target: T1, CEF (Capping Enzyme of Flavivirus); test: Competition with α-32P-GTP for covalent binding to CEF (no UV, gel electrophoresis/autoradiography); design: species or system Dengue virus type 2 (New Guinea); details: 0-1000 μM competitor, 10 min before α-32P-GTP, with magnesium
Protocol: In the drawings, as noted above, FIGS. 1A and 1B are a pair of photographs of gel electrophoresis. […] 2 μg of CEF was incubated with 50 μM (1 μCi) of either α-^32P-GTP (lane 1, 2, 5, 6) or α-^32P-ATP (lanes 3, 4) in 50 mM Tris pH 7.6, 5 mM DTT in the presence (lane 1, 3-6)) or absence (lane 2) of 5 mM Mg^2+. The sample was cross-linked using UV irradiation (254 nm), boiled for 5 min, and subjected to denaturing gel electrophoresis. Products were analyzed and quantified using photostimulable plates and a FujiImager. Bacteriophage T4 DNA ligase served as a positive control (lane 5). The F25A variant of CEF was purified under the same conditions as those of wild-type CEF. Upper panels show the comassie-blue stained gels, and lower panels the corresponding autoradiographic analysis. […] CEF was incubated during 10 min with increasing concentrations of Ribavirin 5′-triphosphate (0-50-250-500-750-1000 μM, lanes 1- to 6, respectively) before addition of α-^32P-GTP to the reaction mixture and further incubation for 20 min. The mixture was boiled for 5 min, subjected to denaturing gel electrophoresis, and the gel analyzed and quantified as in panel A. Upper panels show the comassie-blue stained gels, and lower panels the corresponding autoradiographic analysis. Ribavirin: Ribavirin 5′-triphosphate; Lig: Bacteriophage T4 DNA ligase. […]

## Nc1ncnc2c1ncn2[C@@H]1O[C@H](COP(=O)(O)OP(=O)(O)OP(=O)(O)O)[C@@H](O)[C@H]1O [α-^32P-ATP]
[1]; 50 μM nucleotide, 2 μg CEF, UV 254 nm
  labeling of CEF by radiolabeled nucleotide after UV irradiation: unable to label CEF significantly

## Nc1nc2c(ncn2[C@@H]2O[C@H](COP(=O)(O)OP(=O)(O)OP(=O)(O)O)[C@@H](O)[C@H]2O)c(=O)[nH]1 [GTP]
[1]; fixed CEF, increasing radiolabeled GTP, hyperbolic saturation, read-out: binding affinity constant Kd of GTP to CEF
  Kd: 52 µM

## Nc1nc2c(ncn2COCCOP(=O)(O)OP(=O)(O)OP(=O)(O)O)c(=O)[nH]1 [acyclovir 5′-triphosphate]
[2]; CEF first incubated with about 52 μM GTP, increasing competitor, read-out: relative binding affinity constant for binding to CEF
  Kd: ~79 µM
[2]; CEF-acyclovir 5′-triphosphate binding assay
  inhibition of the CEF enzyme (in words): good inhibitor of the CEF enzyme

## NC(=O)c1ncn([C@@H]2O[C@H](COP(=O)(O)OP(=O)(O)OP(=O)(O)O)[C@@H](O)[C@H]2O)n1 [Ribavirin 5′-triphosphate]
[3]
  effect on GTP-binding to CEF: able to decrease GTP-binding to CEP
